Test results as given in ChEMBL document CHEMBL3045742, “Antioxidant, cytotoxicity, and QSAR study of 1-adamantylthio derivatives of 3-picoline and phenylpyridines” (Med Chem Res, 2012).
Values after ≈ are worked out from the molar mass of the structure shown.

Legend:
[1] = system: MOLT-3; assay: Cytotoxicity against Homo sapiens (human) MOLT3 cells after 3 days by crystal violet staining; assay type: functional, cell-based; settings: MOLT-3, 72 h
[2] = system: Radical scavenging activity; assay: Antioxidant activity assessed as DPPH radical scavenging activity at 300 ug/mL after 30 min; assay type: functional
[3] = Cytotoxicity against Homo sapiens (human) HuCCa1 cells after 3 days by crystal violet staining; assay type: functional, cell-based, HuCC-A1
[4] = system: A549; assay: Cytotoxicity against Homo sapiens (human) A549 cells after 3 days by MTT assay; assay type: functional, cell-based
[5] = Antioxidant activity assessed as superoxide radical scavenging activity at 300 ug/mL by NBT reduction assay; assay type: functional
[6] = system: HepG2; assay: Cytotoxicity against Homo sapiens (human) HepG2 cells after 3 days by MTT assay; assay type: functional, cell-based
[7] = Homo sapiens, HepG2, 72 h, read-out: IC50
[8] = Homo sapiens, HuCC-A1, 72 h, read-out: IC50
[9] = Homo sapiens, A549, 72 h, read-out: IC50

Structure (SMILES)	IC50 [1]	Activity [2]	IC50 ([3]; hucc-a1)	IC50 ([4]; a549)	Activity [5]	IC50 [6, 7]	IC50 [3, 8]	IC50 [4, 9]	IC50 ([6]; hepg2)
Cc1cccnc1SC12CC3CC(CC(C3)C1)C2	33.3 mg/L (≈ 128 µM)	19.6%	Not Active	Not Active	10.8%	30 mg/L (≈ 116 µM)			
c1ccc(-c2ccnc(SC34CC5CC(CC(C5)C3)C4)c2)cc1	31.1 mg/L (≈ 96.7 µM)	6.95%	Not Active	Not Active	32%	46.5 mg/L (≈ 145 µM)			
c1ccc(-c2ccc(SC34CC5CC(CC(C5)C3)C4)cn2)cc1		8.77%			31.6%				
c1ccc(-c2cccnc2SC23CC4CC(CC(C4)C2)C3)cc1		11.1%			26.7%				
c1ccc(-c2ccncc2SC23CC4CC(CC(C4)C2)C3)cc1 [3-(1-ADAMANTYLTHIO)-4-PHENYLPYRIDINE]	8.02 mg/L (≈ 24.9 µM)	12.2%			37.5%	21.5 mg/L (≈ 66.9 µM)	29 mg/L (≈ 90.2 µM)	24 mg/L (≈ 74.7 µM)	
c1ccc(-c2cc(SC34CC5CC(CC(C5)C3)C4)ccn2)cc1 [4-(1-ADAMANTYLTHIO)-2-PHENYLPYRIDINE]	28.6 mg/L (≈ 88.8 µM)	30.2%			32.1%		49 mg/L (≈ 152 µM)	38 mg/L (≈ 118 µM)	Not Active
Cc1cncc(SC23CC4CC(CC(C4)C2)C3)c1 [5-(1-ADAMANTYLTHIO)-3-PICOLINE]	15.8 mg/L (≈ 61.1 µM)	7.96%			36.9%	26.5 mg/L (≈ 102 µM)	34 mg/L (≈ 131 µM)	29 mg/L (≈ 112 µM)	
c1ccc(-c2cccc(SC34CC5CC(CC(C5)C3)C4)n2)cc1 [6-(1-ADAMANTYLTHIO)-2-PHENYLPYRIDINE]	32.2 mg/L (≈ 100 µM)	7.37%	Not Active		25.9%	48.5 mg/L (≈ 151 µM)		44 mg/L (≈ 137 µM)	
c1ccc(-c2ccc(SC34CC5CC(CC(C5)C3)C4)nc2)cc1 [6-(1-ADAMANTYLTHIO)-3-PHENYLPYRIDINE]	32.5 mg/L (≈ 101 µM)	10.6%	Not Active		18%			44 mg/L (≈ 137 µM)	Not Active
Cc1ccc(SC23CC4CC(CC(C4)C2)C3)nc1 [6-(1-ADAMANTYLTHIO)-3-PICOLINE]	27.2 mg/L (≈ 105 µM)	7.69%	Not Active	Not Active	28.6%				Not Active
COc1cccc2c1C(=O)c1c(O)c3c(c(O)c1C2=O)C[C@@](O)(C(=O)CO)C[C@@H]3O[C@H]1C[C@H](N)[C@H](O)[C@H](C)O1 [DOXORUBICIN]						0.23 mg/L (≈ 0.423 µM)	0.45 mg/L (≈ 0.828 µM)	0.39 mg/L (≈ 0.718 µM)	
COc1cc([C@@H]2c3cc4c(cc3[C@@H](O[C@@H]3O[C@@H]5CO[C@@H](C)O[C@H]5[C@H](O)[C@H]3O)[C@H]3COC(=O)[C@H]23)OCO4)cc(OC)c1O [ETOPOSIDE]	0.019 mg/L (≈ 0.0323 µM)					12 mg/L (≈ 20.4 µM)			
